These results are taken from PubChem BioAssay (NCI).

What all share (assay): NCI anticancer screen, dose series, 48 h
Assay [1] concerns SR leukemia.
The test system of assay [2] is DU-145 prostate.
Assay [3] deals with SF-295 CNS.
Assay [4] concerns SK-OV-3 ovarian.
Assay [5] deals with HCT-116 colon.
Assay [6] concerns HT29 colon.
For assay [7], the system named is OVCAR-3 ovarian.
Assay [8] concerns PC-3 prostate.
Assay [9] concerns SK-MEL-5 melanoma.

Molecules are shown by their SMILES.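 All cell lines were grown in 96-well plates and treated with compound for 48 hours. At the GI50, growth is halved. Definition used: TGI = concentration required for complete inhibition of growth.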

Turning to `CC(C)Oc1cccc(N2C(CCc3c[nH]c4ccc(Br)cc34)=NS(=O)(=O)c3cnccc32)c1`, the TGI in [1], in assay [2], in assay [3], in [4], in assay [5] and in assay [6] was over 100 µM throughout. Besides, the TGI in assay [7], in assay [8] and in [9] was over 100 µM each time.
Consider `O=C(/C=C\c1ccccc1)Oc1ccc(/C=C2\CCC/C(=C\c3ccc(OC(=O)/C=C\c4ccccc4)cc3)C2=O)cc1`, for which the TGI in assay [1], in assay [2], in assay [3], in assay [5], in assay [6] and in [7] was over 100 µM in each case. For the same compound, the TGI in assay [8] and in [9] was over 100 µM throughout.
For `CC(=O)CCC1(C(=O)OCC(C)C)CCCC1=O` (stereo unspecified), the TGI in assay [2], in [3], in [4], in [5], in [6] and in assay [7] was over 100 µM each time. For the same compound, the TGI in assay [8] and in assay [9] was over 100 µM in each case.
For `Cc1ccc(S(=O)(=O)OCCN(CCOS(=O)(=O)c2ccc(C)cc2)c2ccc(C=O)cc2)cc1`, the TGI is 69.9 µM in [2]; over 100 µM in assay [3]; over 100 µM in [5]; over 100 µM in [6]; 56 µM in assay [7]; over 100 µM in assay [8]. In assay [9], the TGI was over 100 µM.
Consider `COc1ccc2oc(=O)c(-c3cc4c(c(C)n3)c(=O)oc3ccc(OC)cc34)cc2c1`, for which the TGI in assay [1], in assay [2], in assay [3], in assay [4], in assay [5] and in assay [6] was over 100 µM in each case. Besides, the TGI in assay [7], in assay [8] and in assay [9] was over 100 µM throughout.
`COc1cccc2c(=O)oc(-c3ccccc3C)nc12`: the TGI in assay [1] was over 100 µM; in assay [2], over 100 µM; in [3], 88.9 µM; in assay [4], over 100 µM; in assay [5], over 100 µM; in assay [6], over 100 µM. Also, the TGI in [7] is over 100 µM; in [8], over 100 µM; in assay [9] it was 57.7 µM.
Take `COC(=O)Nc1cc(OCCCOC(C)=O)c2[nH]c(C(=O)OC)cc2c1C[C@H](O)CO`: the TGI in assay [1], in assay [2], in assay [3], in [4], in assay [5] and in [6] was over 100 µM in each case. Besides, the TGI in assay [7], in [8] and in assay [9] was over 100 µM throughout.
As to `COc1cc2c(cc1O)NC(=O)[C@@H]1C[C@@H](O)CN1C2=O`, the TGI in [1], in assay [2], in assay [3], in [4], in assay [5] and in [6] was over 100 µM in each case. The TGI in [7], in assay [8] and in [9] was over 100 µM each time.
`COc1cc2c(cc1OC)C1=C(C=O)c3ccc(OC)c(OC)c3C(O)N1CC2` (stereo unspecified): the TGI in [2] was 87.5 µM; in assay [3], over 100 µM; in [4] it was over 100 µM; in assay [5], over 100 µM; in assay [6] it was over 100 µM; in assay [7], over 100 µM. Moreover, the results for the TGI in assay [8] and in [9] were 54 µM and 29.7 µM, respectively.
As for `O=C1c2ccccc2-c2c1c1ccccc1c(=O)n2CCCNCCNCCCn1c2c(c3ccccc3c1=O)C(=O)c1ccccc1-2`, the GI50 is 0.0509 µM in assay [1]; 0.0782 µM in [3]; 1.33 µM in assay [4]; under 0.01 µM in [5]; under 0.01 µM in [6]; 0.0929 µM in [8]. The TGI in [1] is over 100 µM; in [2], 1.07 µM; in [3], 2.32 µM; in assay [5] it was 0.163 µM; in [8] it was 1.84 µM.
With `CCCCCCCCCCCCOCC(COP(=O)(O)OCCN=[N+]=[N-])OC(=O)CCCCCCCCCCC` (stereo unspecified), the TGI in assay [2], in assay [3], in [4], in [5], in [6] and in assay [7] was over 100 µM in each case. In addition, the TGI in [8] and in [9] was over 100 µM each time.
Take `COc1ccc(C(=CCC(C)C2CCC3[C@@H]4C(OC(C)=O)CC5CC(OC(C)=O)CC[C@]5(C)C4CC(OC(C)=O)[C@]23C)c2ccc(OC)cc2)cc1` (stereo partly specified): the TGI in assay [1] was 77.5 µM; in assay [3], over 100 µM; in [4], over 100 µM; in assay [5] it was over 100 µM; in assay [6], over 100 µM; in [8], over 100 µM. This compound also had a TGI in [9] of over 100 µM.
Consider `O=C(Nc1ccc(-n2cc(-c3ccncc3)c(-c3ccc(O)c(Cl)c3)n2)cc1)Nc1cc(C(F)(F)F)cc(C(F)(F)F)c1`, for which the GI50 in [1] was 6.06 µM; in assay [2], 5.97 µM; in assay [3], 2.08 µM; in [5] it was 3.78 µM; in assay [6] it was 8.94 µM; in [7] it was 2.73 µM. Moreover, the GI50 in assay [8] is 2.92 µM; in [9], 4.08 µM. Further, the TGI in assay [1] stood at 31.3 µM; in [2] it was 18.9 µM; in assay [3] it was 6.56 µM; in assay [5], 13.7 µM; in assay [6], 22.7 µM; in [7], 6.76 µM. The values for the TGI in assay [8] and in assay [9] were 11.5 µM and 15.5 µM, respectively.
Turning to `Clc1[nH]nc2ccccc12`, the TGI in [2], in assay [3], in assay [4], in [5], in assay [6] and in assay [7] was over 100 µM each time. The TGI in [8] and in assay [9] was over 100 µM in each case.
Take `CC(=O)O[C@H]1CC[C@@H](OC(C)=O)[C@H]2[C@H](O)[C@H](O)[C@@H]1n1c(=O)n(-c3ccccc3)c(=O)n12`: the TGI in assay [2], in [3], in assay [5], in assay [6], in assay [7] and in [8] was over 100 µM in each case. In addition, the TGI in [9] was over 100 µM.
In the case of `Cc1ccc(S(=O)(=O)NC(=O)Nc2ccc(C(=O)O)cc2)cc1`, the TGI in [2], in [3], in assay [4], in assay [5], in assay [6] and in [8] was over 100 µM throughout. In assay [9], the TGI is over 100 µM.
Consider `NC(=O)CSc1nc2ccccc2c(=O)n1N`, for which the TGI in [1], in [2], in [3], in assay [5], in assay [6] and in [7] was over 100 µM each time. For the same compound, the TGI in assay [8] and in assay [9] was over 100 µM throughout.
As to `O=C(O)CCCc1ccc2c(c1)C(C(=O)O)CC2` (stereo unspecified), the TGI in assay [1], in assay [2], in assay [3], in assay [4], in assay [5] and in [6] was over 100 µM each time. The TGI in [8] and in assay [9] was over 100 µM each time.
For `CCOC(=O)C(Cc1ccc(N=NN(C)C)cc1)NC(=O)CC1c2ccccc2-c2ccccc21` (stereo unspecified), the TGI in [1], in [3], in [4], in assay [5], in [6] and in [7] was over 100 µM in each case. The compound also displayed a TGI in assay [9] of over 100 µM.
Consider `O=C(/C=C/c1ccccc1)c1cc(CN2CCOCC2)c(O)c(CN2CCOCC2)c1`, for which the TGI in [1] was 24.2 µM; in assay [2] it was 29.8 µM; in assay [3], 34.8 µM; in assay [5] it was 31.3 µM; in assay [6] it was over 100 µM; in assay [7], 29.4 µM. In addition, the TGI in assay [8] amounted to 38.4 µM; in assay [9], 26 µM.
On to `CC(C)(C)C(=O)c1c(O)c2ccccc2c2ccccc2c1=O`, for which the TGI in assay [2], in assay [3], in [4], in assay [5], in assay [6] and in assay [7] was over 100 µM throughout. The TGI in [8] and in [9] was over 100 µM in each case.
Consider `O=C(Nc1cccc2ccccc12)c1cc2ccccc2oc1=O`, for which the TGI in assay [1], in [2], in assay [4], in assay [5], in assay [6] and in assay [7] was over 100 µM in each case. Also, the TGI in [8] and in assay [9] was over 100 µM in each case.
As for `NCCCNc1nc2ccccc2c2c(=O)c3cc(Cl)ccc3sc12`, the GI50 is 1.84 µM in assay [2]; 1.58 µM in assay [4]; 1.72 µM in assay [6]; 1.69 µM in assay [8]; 3.71 µM in [9]. Further, the TGI in [2] is 3.27 µM; in [4], 3.48 µM; in assay [6], 3.18 µM; in assay [8], 3.23 µM; in [9], 16.2 µM.
`COC(=O)[C@H](C)NC(=O)[C@H](NS(=O)(=O)c1nc2ccccc2s1)c1ccccc1`: the TGI in assay [1] was over 100 µM; in assay [2], 41 µM; in assay [3], over 100 µM; in assay [4], over 100 µM; in assay [5] it was over 100 µM; in [6] it was over 100 µM. Moreover, the TGI in assay [8] was over 100 µM; in assay [9], 40.5 µM.
With `C/C(=N/NC(=S)Nc1ccc(C)cc1)c1ccccn1`, the TGI in [2] was determined as 10.4 µM; in [3], 11.8 µM; in [4], 17 µM; in assay [5] it was 13 µM; in assay [6], 19.4 µM; in assay [7], 12.2 µM. Also, the TGI came out at 13.7 µM in assay [8] and 2.29 µM in [9].
Regarding `Cc1nc(C(=Nc2ccc(Br)cc2)Nn2cnnc2)no1`, the TGI in assay [2], in [3], in assay [4], in assay [5], in [6] and in assay [7] was over 100 µM throughout. Moreover, the TGI in assay [8] and in [9] was over 100 µM in each case.
Turning to `O=c1[nH]nc(Nc2ccc(Cl)cc2)c2nnn(C3CCCCC3)c12`, the TGI in assay [1] is 43.3 µM; in [2] it was over 100 µM; in assay [3] it was over 100 µM; in [5] it was over 100 µM; in assay [6], over 100 µM; in assay [7] it was over 100 µM. Besides, the TGI in [8] and in assay [9] was over 100 µM in each case.
Consider `CCCCCCCCCCCC1=C(O)C(=O)C(CC2=C(O)C(=O)C(CCCCCCCCCCC)=C(O)C2=O)=C(O)C1=O`, for which the TGI in [1] is 42.4 µM; in assay [2], over 100 µM; in assay [3], over 100 µM; in assay [4], over 100 µM; in assay [5] it was over 100 µM; in assay [6], over 100 µM. Moreover, the TGI in assay [8] and in assay [9] was over 100 µM throughout.
As for `CC(C)(NO)/C(=N\O)c1ccccc1`, the TGI in [1], in [2], in assay [3], in assay [5], in assay [6] and in assay [7] was over 10 µM throughout. The compound also returned a TGI in assay [8] of over 10 µM.
For the compound `CC1=NC(=N)N=C(C)C1N=Nc1ccc2nc(C)[nH]c2c1` (stereo unspecified), the TGI in assay [2], in assay [3], in assay [4], in assay [5], in assay [6] and in assay [7] was over 100 µM each time. This compound showed a TGI in [8] of over 100 µM.
